Measurements from PubChem BioAssay AID1508610 (The Scripps Research Institute Molecular Screening Center, 2020).
pEC50: −log10 of the molar value. Activity calls are given as the source filed them. How the calls were made is not given here.

Target: G-protein coupled receptor 151 (Homo sapiens) (UniProt Q8TDV0)
Assay: GPR151 activator potency, dose response, cell-based (AID 1508610)
Conditions: cell-based GPR151 activation reporter

G-protein coupled receptor 151 (Homo sapiens), sequence (Q8TDV0 whole entry, looked up): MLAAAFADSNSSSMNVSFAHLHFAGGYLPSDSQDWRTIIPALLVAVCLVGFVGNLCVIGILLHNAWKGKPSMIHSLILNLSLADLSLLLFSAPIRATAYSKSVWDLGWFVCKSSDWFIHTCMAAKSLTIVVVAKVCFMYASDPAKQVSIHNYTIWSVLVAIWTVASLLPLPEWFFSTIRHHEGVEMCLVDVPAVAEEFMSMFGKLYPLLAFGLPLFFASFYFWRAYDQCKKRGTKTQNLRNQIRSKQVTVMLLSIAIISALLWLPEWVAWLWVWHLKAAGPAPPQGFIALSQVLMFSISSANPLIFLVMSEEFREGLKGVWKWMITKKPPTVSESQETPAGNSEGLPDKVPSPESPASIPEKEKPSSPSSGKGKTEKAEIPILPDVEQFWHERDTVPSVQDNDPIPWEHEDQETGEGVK

Compound | EC50 | pEC50
CCOC(=O)C1=C(C)N=c2s/c(=C\c3ccc(-c4ccccc4C(=O)O)o3)c(=O)n2C1c1ccccc1OC (centres undefined) | > 25.1 µM (inactive) | –
Cc1ccc(C(=O)CSc2[nH]c(=O)ncc2C)cc1 | > 28.6 µM (inactive) | –
CC(C)(C)OC(=O)NNC(=O)/C=C/c1cc(Br)ccc1F | > 28.1 µM (inactive) | –
CC1=NCCc2c1[nH]c1cc(O)ccc21 | > 28 µM (inactive) | –
CC1(C)Cc2cccc(OCC(=O)NC3=NCCS3)c2O1 | > 29.3 µM (inactive) | –
O=C(/C=C/c1cccc([N+](=O)[O-])c1)NC1C2CC3CC(C2)CC1C3 (centres undefined) | > 34 µM (inactive) | –
Cn1c(=O)[nH]c(=O)c2c1nc(N1CCN(c3cccc(Cl)c3)CC1)n2Cc1ccccc1 | > 22.4 µM (inactive) | –
Cc1ccc(C(=O)Nc2cccc(C(=O)O)c2)cc1 | > 32.6 µM (inactive) | –
CCCOc1ccc(NC(=O)C2CC(=O)N(CC)C(=Nc3ccc(C)c(C)c3)S2)cc1 (centres undefined) | > 26.4 µM (inactive) | –
Clc1nc(NCc2ccccc2)c2ncn(-c3ccccc3)c2n1 | > 28.1 µM (inactive) | –
O=C(Nc1ccc(Br)cn1)c1ccc(N2CCCCC2)c([N+](=O)[O-])c1 | > 28 µM (inactive) | –
CCOc1cc(NC(=O)C2CCCO2)c(OCC)cc1NC(C)=O (centres undefined) | > 9.34 µM (inactive) | –
COc1cccc(-c2nc(-c3ccccn3)no2)c1 | > 37.5 µM (inactive) | –
Cc1cccc(N2CCN(C(=O)c3ccc(S(=O)(=O)c4ccc(F)cc4)c([N+](=O)[O-])c3)C(C)C2)c1 (centres undefined) | > 23.3 µM (inactive) | –
CCc1ccccc1N(CC(=O)Nc1ccccc1Cl)S(C)(=O)=O | – | 8.82
COc1ccc(CCN2C(=O)c3ccc(Oc4ccc(Nc5ncnc6ccccc56)cc4)cc3C2=O)cc1OC | – | 5.62
COC(=O)c1ccc(C2C(C#N)=C(N)Oc3n[nH]c(C45CC6CC(CC(C6)C4)C5)c32)cc1 (centres undefined) | inactive | –
CCOC(=O)N1CCc2nc(NC(=O)c3ccnn3CC)sc2C1 | > 28 µM (inactive) | –
COc1cccc(-c2ccc(SCC(=O)Nc3cccc(NC(C)=O)c3)nn2)c1 | > 27.4 µM (inactive) | –
CCOCCCNC(=O)c1cc([N+](=O)[O-])ccc1Cl | > 28 µM (inactive) | –
c1ccc(-c2ccc(-c3nc(-c4ccccn4)no3)cc2)cc1 | > 24.8 µM (inactive) | –
Cc1ccccc1N(CC(=O)N1CCOCC1)S(=O)(=O)c1ccc(Cl)cc1 | > 28 µM (inactive) | –
COc1cc(N)c(Cl)cc1C(=O)OCCOc1ccc(Br)cc1 | > 30.8 µM (inactive) | –

Compound | EC50 | pEC50
CCN(CC(=O)NC1CCCCCC1)S(=O)(=O)c1ccc(C)cc1 | > 28 µM (inactive) | –
COc1ccc(CCNc2cc(C)nc(Nc3ccc(-n4ccnc4)cc3)n2)cc1 | – | 5.93
CCOC(=O)COc1ccc(/C=C2\C=C(c3ccc(Br)cc3)OC2=O)cc1OC | > 23.6 µM (inactive) | –
O=C(Nc1ncc([N+](=O)[O-])s1)c1ccc(Cl)cc1Cl | > 27.3 µM (inactive) | –
O=C(N1CCN(Cc2ccccc2)CC1)C(Cl)(Cl)Cl | > 28 µM (inactive) | –
COc1cccc(NC(=O)c2oc3ccc4c(c3c2C)C(=O)CC(C)(C)O4)c1 | > 28 µM (inactive) | –
O=[N+]([O-])c1ccc(NS(=O)(=O)Cc2ccccc2)c([N+](=O)[O-])c1 | > 28 µM (inactive) | –
O=C1[C@H]2[C@H]3[C@H](O)[C@H](O)C/C(=N\OCc4ccccc4)[C@H]3CC[C@H]2C(=O)N1C1CCCCC1 | inactive | –
COc1ccc(-c2nc(Nc3ccccc3F)c3ccccc3n2)cc1OC | > 28.2 µM (inactive) | –
CC(=O)Oc1cccc(N2C(=O)C3C4c5ccccc5C(C)(c5ccccc54)C3C2=O)c1 (centres undefined) | – | 11.00
O=C(NCc1ccc(F)cc1)C(=O)Nc1cccc(Cl)c1 | > 28 µM (inactive) | –
Cc1ccccc1C(=O)Nc1noc2ccccc12 | > 28 µM (inactive) | –
Cc1ccc(-c2nc3ccccc3[nH]2)cc1 | > 35.1 µM (inactive) | –
Cc1ccc(-c2nc(-c3ccccn3)no2)cc1Cl | > 35 µM (inactive) | –
O=C(Nc1nnc(SCc2cccc(F)c2)s1)C1CC1 | > 29 µM (inactive) | –
[O-]/[N+](=C\c1ccncc1)c1ccc(Cl)cc1 | > 28.9 µM (inactive) | –
Cc1ccc(-n2nc3c(c2NC(=O)c2cccc(F)c2)CS(=O)C3)c(C)c1 (centres undefined) | > 27.8 µM (inactive) | –
CC[C@@H](C(=O)[C@@H](C)[C@@H](O)[C@H](C)CCc1ccc(C)c(O)c1C(=O)O)[C@H]1O[C@](CC)([C@H]2CC[C@](O)(CC)[C@H](C)O2)C[C@@H]1C | > 28 µM (inactive) | –
c1ccc2[nH]c(-c3nc4ccccc4o3)nc2c1 | > 28.6 µM (inactive) | –
Cc1ccc(C(=O)Nc2ccc([N+](=O)[O-])cc2)c(Cl)c1 | > 28 µM (inactive) | –
COc1cccc(NC(=O)n2ncc3c(C)cccc32)c1 | > 28 µM (inactive) | –
COc1ccccc1N=C1SC(CC(=O)Nc2cccc([N+](=O)[O-])c2)C(=O)N1C (centres undefined) | > 28 µM (inactive) | –
COc1cc(Nc2cc(-c3ccc(C(N)=O)cc3)nc(N)n2)cc(OC)c1OC | > 25.6 µM (inactive) | –

Compound | EC50 | pEC50
O=c1oc2cc(O)ccc2cc1-c1ccc(Cl)cc1 | > 28.8 µM (inactive) | –
O=C(O)CCn1cc(C=C2C(=O)NC(=O)NC2=O)c(-c2ccc(Br)cc2)n1 | > 28 µM (inactive) | –
O=C(Nc1c2c(nn1-c1cccc(Cl)c1)CSC2)c1ccccc1Br | > 20.9 µM (inactive) | –
Cc1sc(NC(=O)c2ccco2)c(CN2CCN(CCO)CC2)c1C | > 27.7 µM (inactive) | –
CC1CCN(S(=O)(=O)c2ccc(NC(=O)CSc3nc4ccccc4o3)cc2)CC1 | inactive | –
Cc1ccc(NC(=O)CCNc2c(N3CCCC3)c(=O)c2=O)cc1Cl | > 28 µM (inactive) | –
COc1ccc(CCn2c(=S)[nH]c3cc(C(=O)N4CCOCC4)ccc3c2=O)cc1OC | > 22.2 µM (inactive) | –
COc1ccc(S(=O)(=O)N(C)C)c(Cl)c1Cl | > 28 µM (inactive) | –
CN1C(=O)C(=Cc2nc3ccccc3c(=O)n2-c2ccc([N+](=O)[O-])cc2)c2cc(Br)ccc21 | > 19.1 µM (inactive) | –
CCC1CN(CCNC(=O)CC2CCCC2)Cc2cc(OC)ccc2O1 (centres undefined) | > 28 µM (inactive) | –
Cc1ccc(C(=O)Nc2nc(Cl)c(C#N)s2)cc1 | > 28.2 µM (inactive) | –
O=C(CSc1nc(-c2ccccc2)cs1)Nc1ccccc1 | > 28 µM (inactive) | –
COc1ccc(C[C@H](N)C(=O)N[C@@H]2[C@@H](CO)OC(n3cnc4c(N(C)C)ncnc43)[C@@H]2O)cc1 (some centres undefined) | > 28 µM (inactive) | –
Cn1cccc1C(=O)OCC(=O)NC(=O)NCc1ccccc1 | > 28.4 µM (inactive) | –
COc1ccc(-c2ccc(C(=O)Nc3ccc(NC(C)=O)cc3)s2)cc1 | > 26.6 µM (inactive) | –
C=CCN1C(=O)CS/C1=N\NC(=O)c1ccccc1 | > 28.5 µM (inactive) | –
CSC1=NSC2=NC(=O)/C(=C\c3ccc([N+](=O)[O-])cc3)C(=N)N12 | > 28 µM (inactive) | –
COc1ccccc1C(=O)Nc1nc2ccccc2s1 | > 26.2 µM (inactive) | –
Cc1ccc(N(CC(=O)NCCC2=CCCCC2)S(C)(=O)=O)cc1Cl | > 28 µM (inactive) | –
CCN(CC)S(=O)(=O)c1ccc(C(=O)Nc2ccc(Cc3ccncc3)cc2)cc1 | > 25 µM (inactive) | –
CCOc1ccc(-c2csc(/C(C#N)=C/c3ccccc3OCC)n2)cc1 | > 25.5 µM (inactive) | –
N#Cc1ccc(NC(=O)COC(=O)CCC(=O)c2ccc3c(c2)OCCO3)cc1 | > 28.4 µM (inactive) | –
COc1cc([N+](=O)[O-])ccc1NC(=O)Nc1ccc(Cl)cc1F | > 28 µM (inactive) | –
